Measured values from PubChem BioAssay (NCI).
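96-well plates; 48 h exposure; 5 concentrations. Endpoints by linear interpolation between flanking doses. Not reached: highest tested concentration assigned. The concentration for full growth arrest is given as TGI.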

What was measured:
Test in all cases: NCI anticancer screen, dose series, 48 h
SW-620 colon = tested on: SW-620 colon
HS 578T breast = tested on: HS 578T breast
UO-31 renal = tested on: UO-31 renal
MCF7 breast = tested on: MCF7 breast
U251 CNS = tested on: U251 CNS
HCT-116 colon = tested on: HCT-116 colon
K-562 leukemia = tested on: K-562 leukemia
MDA-MB-435 = tested on: MDA-MB-435
SK-MEL-28 melanoma = tested on: SK-MEL-28 melanoma
HCC-2998 colon = tested on: HCC-2998 colon
PC-3 prostate = tested on: PC-3 prostate
HOP-62 NSCLC = tested on: HOP-62 NSCLC
SK-MEL-2 melanoma = tested on: SK-MEL-2 melanoma
HOP-92 NSCLC = tested on: HOP-92 NSCLC
SNB-75 CNS = tested on: SNB-75 CNS
OVCAR-5 ovarian = tested on: OVCAR-5 ovarian
UACC-257 melanoma = tested on: UACC-257 melanoma
NCI-H460 lung = tested on: NCI-H460 lung
RXF 393 renal = tested on: RXF 393 renal
A498 renal = tested on: A498 renal
SF-539 CNS = tested on: SF-539 CNS
KM12 colon = tested on: KM12 colon
DU-145 prostate = tested on: DU-145 prostate
SNB-19 CNS = tested on: SNB-19 CNS
786-0 renal = tested on: 786-0 renal
HCT-15 colon = tested on: HCT-15 colon
EKVX NSCLC = tested on: EKVX NSCLC
OVCAR-8 ovarian = tested on: OVCAR-8 ovarian
OVCAR-4 ovarian = tested on: OVCAR-4 ovarian
NCI-H23 lung = tested on: NCI-H23 lung
NCI-H522 lung = tested on: NCI-H522 lung
HT29 colon = tested on: HT29 colon
MALME-3M melanoma = tested on: MALME-3M melanoma
MOLT-4 leukemia = tested on: MOLT-4 leukemia
SK-MEL-5 melanoma = tested on: SK-MEL-5 melanoma
SN12C renal = tested on: SN12C renal
MDA-MB-231 breast = tested on: MDA-MB-231 breast
HL-60(TB) leukemia = tested on: HL-60(TB) leukemia
NCI-H226 lung = tested on: NCI-H226 lung
CAKI-1 renal = tested on: CAKI-1 renal
CCRF-CEM leukemia = tested on: CCRF-CEM leukemia
SF-295 CNS = tested on: SF-295 CNS
SR leukemia = tested on: SR leukemia
TK-10 renal = tested on: TK-10 renal
LOX IMVI melanoma = tested on: LOX IMVI melanoma
BT-549 breast = tested on: BT-549 breast
M14 melanoma = tested on: M14 melanoma
MDA-N = tested on: MDA-N
NCI/ADR-RES ovarian = tested on: NCI/ADR-RES ovarian
A549 NSCLC = tested on: A549 NSCLC
OVCAR-3 ovarian = tested on: OVCAR-3 ovarian
RPMI-8226 leukemia = tested on: RPMI-8226 leukemia
ACHN renal = tested on: ACHN renal
COLO 205 colon = tested on: COLO 205 colon
SF-268 CNS = tested on: SF-268 CNS
IGROV1 ovarian = tested on: IGROV1 ovarian
UACC-62 melanoma = tested on: UACC-62 melanoma
T-47D breast = tested on: T-47D breast
SK-OV-3 ovarian = tested on: SK-OV-3 ovarian

Measured: TGI

O=c1[nH]c(=O)n(COCCO)c2ccsc12
> 100 µM: SW-620 colon | HS 578T breast | UO-31 renal | MCF7 breast | U251 CNS | HCT-116 colon | K-562 leukemia | MDA-MB-435 | SK-MEL-28 melanoma | HCC-2998 colon | PC-3 prostate | HOP-62 NSCLC | SK-MEL-2 melanoma | HOP-92 NSCLC | SNB-75 CNS | OVCAR-5 ovarian | UACC-257 melanoma | NCI-H460 lung | RXF 393 renal | A498 renal | SF-539 CNS | KM12 colon | DU-145 prostate | SNB-19 CNS | 786-0 renal | HCT-15 colon | EKVX NSCLC | OVCAR-8 ovarian | OVCAR-4 ovarian | NCI-H23 lung | NCI-H522 lung | HT29 colon | MALME-3M melanoma | MOLT-4 leukemia | SK-MEL-5 melanoma | SN12C renal | MDA-MB-231 breast | HL-60(TB) leukemia | NCI-H226 lung | CAKI-1 renal | CCRF-CEM leukemia | SF-295 CNS | SR leukemia | TK-10 renal | LOX IMVI melanoma | BT-549 breast | M14 melanoma | MDA-N | NCI/ADR-RES ovarian | A549 NSCLC | OVCAR-3 ovarian | RPMI-8226 leukemia | ACHN renal | COLO 205 colon | SF-268 CNS | IGROV1 ovarian

Cc1cccc2nc3c(=O)[nH]c(=O)nc-3n(C)c12
95.4 µM: RPMI-8226 leukemia
87.4 µM: NCI-H522 lung
> 100 µM: SW-620 colon | HS 578T breast | MCF7 breast | U251 CNS | HCT-116 colon | K-562 leukemia | SK-MEL-28 melanoma | HCC-2998 colon | PC-3 prostate | HOP-62 NSCLC | SK-MEL-2 melanoma | SNB-75 CNS | OVCAR-5 ovarian | UACC-257 melanoma | NCI-H460 lung | RXF 393 renal | SF-539 CNS | KM12 colon | UACC-62 melanoma | DU-145 prostate | SNB-19 CNS | T-47D breast | 786-0 renal | HCT-15 colon | EKVX NSCLC | OVCAR-8 ovarian | OVCAR-4 ovarian | NCI-H23 lung | HT29 colon | MOLT-4 leukemia | SK-MEL-5 melanoma | SN12C renal | MDA-MB-231 breast | NCI-H226 lung | CAKI-1 renal | CCRF-CEM leukemia | SF-295 CNS | TK-10 renal | LOX IMVI melanoma | BT-549 breast | M14 melanoma | MDA-N | NCI/ADR-RES ovarian | A549 NSCLC | OVCAR-3 ovarian | ACHN renal | COLO 205 colon | SK-OV-3 ovarian | SF-268 CNS | IGROV1 ovarian
34.1 µM: MDA-MB-435
45.9 µM: HL-60(TB) leukemia
38.5 µM: MALME-3M melanoma
